According to US20200270309A1, “MALEIMIDE GROUP-MODIFIED ANGIOGENESIS INHIBITOR HM-1 AND USE THEREOF” (NANJING ANJI BIOLOGICAL TECHNOLOGY CO., LTD, priority 2017, published 2020):
Marks after values point to notes of the source that are not given here. Peptide text beside a SMILES is read from it. * marks the point of attachment. X84 = O=C1C=CC(=O)N1c1ccccc1CCCCCCCCCCCCC(=O)*; X71 = O=C1C=CC(=O)N1c1cccc(CCCCCC(=O)*)c1; X61 = O=C1C=CC(=O)N1c1cccc(CCCC(=O)*)c1; X79 = O=C1C=CC(=O)N1c1cccc(CCC(=O)*)c1; X75 = O=C1C=CC(=O)N1c1cccc(CC(=O)*)c1

How the values were obtained:
splenic lymphocytes = experiment: Proliferation of splenic lymphocytes in mice (ConA, MTT); format: cell-based; settings: ConA-stimulated mouse splenic lymphocytes, 48 h
In short: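 Mouse splenocytes (5×10^6 cells/mL, RPMI 1640 with 10% calf serum, red cells lysed) stimulated with ConA plus varying polypeptide concentrations, with blank, ConA-only and Dex groups, 48 h at 37° C. MTT added for 4 h, formazan dissolved in DMSO, OD read at 570 nm; five replicates.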

adjuvant arthritis = experiment: Rat adjuvant arthritis (AA) animal model; format: in vivo, SD rats; settings: 4.0 mg/kg; for Clinical score: intravenous in the tail once every five days from day 10, four paws scored 0-4, max 16, mean±SD; for Joint swelling degree / Left and right paw swelling degree: intravenous in the tail once every five days from day 10, mean±SD
[1] = tested on: corneal neovascularization; experiment: Corneal neovascularization induced by alkali burn in BALB/c mice; format: in vivo; parameters: Inhibition rate (corneal neovascularization): concentration or dose not given beside the values; settings: day 14 after alkali burn, vitreous injection once a day for 1 week
[2] = tested on: xylene-induced ear swelling; experiment: Xylene-induced mouse ear swelling; format: in vivo; settings: Kunming mice, injected once a day for 5 days; for Swelling degree / Swelling degree (mg): right minus left ear piece weight 2 h after xylene; for Inhibition rate (%): xylene-induced ear swelling
In short: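 Kunming mice dosed by injection once daily for 5 days; 1 h after last dose, 0.05 mL xylene applied to right ear, left ear untreated. Mice killed 2 h later; punched ear pieces weighed. Swelling degree = right minus left ear weight; swelling rate = swelling degree/left ear weight ×100%.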

[3] = Half-lives and pharmacokinetic parameters of polypeptides vs HM-1; settings: in vivo; for half-life: T1/2β (half-life)
[4] = tested on: carrageenan-induced toe swelling; experiment: Carrageenan-induced toe swelling in rats; format: in vivo; settings: SD rats; for Swelling degree 1 h: 1 h after carrageenan; for Swelling degree 3 h: 3 h after carrageenan; for Swelling degree 5 h: 5 h after carrageenan; for Swelling degree 7 h: 7 h after carrageenan
In short: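 Rats dosed by injection once daily for 3 d, controls given equal-volume saline. Right hind paw volume measured by water displacement to a marked joint line; swelling degree (mL) is paw volume after carrageenan inflammation minus volume before.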

SMILES | A570 nm/A630 nm (splenic lymphocytes; polypeptide dose 0.05 μM) | Inhibition rate (%) (splenic lymphocytes; polypeptide dose 0.05 μM) | A570 nm/A630 nm (splenic lymphocytes; polypeptide dose 0.1 μM) | Inhibition rate (%) (splenic lymphocytes; polypeptide dose 0.1 μM) | A570 nm/A630 nm (splenic lymphocytes; polypeptide dose 0.2 μM) | Inhibition rate (%) (splenic lymphocytes; polypeptide dose 0.2 μM) | Clinical score (adjuvant arthritis) | Joint swelling degree (adjuvant arthritis) [mm] | Left and right paw swelling degree (adjuvant arthritis) [mm] | Inhibition rate (corneal neovascularization) [1] [%] | MVD (corneal microvessel density) [1] | Swelling degree ([2]; dose 2 mg/kg) [mg] | Inhibition rate (%) ([2]; dose 2 mg/kg) | Inhibition rate (%) ([2]; dose 4 mg/kg) | Swelling degree (mg) ([2]; dose 8 mg/kg) | Inhibition rate (%) ([2]; dose 8 mg/kg) | AUC(0-inf) [3] [ng·h/mL] | MRT inf [3] [h] | clearance [3] [mL/min/kg] | half-life [3] [h] | also measured
C[C@H](NC(=O)CNC(=O)[C@H](CCCNC(=N)N)NC(=O)CCCCCCCCCCCCc1ccccc1N1C(=O)C=CC1=O)C(=O)N[C@@H](CC(=O)O)C(=O)N[C@@H](CCCNC(=N)N)C(=O)N[C@@H](C)C(=O)NCC(=O)NCC(=O)NCC(=O)NCC(=O)N[C@@H](CCCNC(=N)N)C(=O)NCC(=O)N[C@@H](CC(=O)O)C(=O)O [X24] (X84-RGADRAGGGGRGD-OH) | 0.5823 ± 0.0474 | 14.12 | 0.5615 ± 0.1155 | 16.86 | 0.5142 ± 0.0636 | 23.87 | 5.73 ± 1.15 | 0.76 ± 0.15 | 3.94 ± 0.70 | 46.24 | 36.15 ± 4.199 | 5.25 ± 0.06 | 15.73 | 20.06 | 4.34 ± 0.68** mg | 30.34 | 29700 ± 7580 | 53.1 ± 13.5 | 0.562 | 36.77 ± 0.29 | Swelling degree (mg) ([2]; dose 4 mg/kg): 4.98 ± 0.19* mg; Swelling degree 1 h ([4]; 2.0 mg/kg once a day for 3 d): 0.24 ± 0.16 mg; Swelling degree 3 h ([4]; 2.0 mg/kg once a day for 3 d): 0.34 ± 0.18 mg; Swelling degree 5 h ([4]; 2.0 mg/kg once a day for 3 d): 0.43 ± 0.12 mg; Swelling degree 7 h ([4]; 2.0 mg/kg once a day for 3 d): 0.38 ± 0.13 mg; Swelling degree 1 h ([4]; 4.0 mg/kg once a day for 3 d): 0.23 ± 0.17 mg; Swelling degree 3 h ([4]; 4.0 mg/kg once a day for 3 d): 0.35 ± 0.13 mg; Swelling degree 5 h ([4]; 4.0 mg/kg once a day for 3 d): 0.38 ± 0.16 mg; Swelling degree 7 h ([4]; 4.0 mg/kg once a day for 3 d): 0.32 ± 0.12 mg
C[C@H](NC(=O)CNC(=O)[C@H](CCCNC(=N)N)NC(=O)Cc1cccc(N2C(=O)C=CC2=O)c1)C(=O)N[C@@H](CC(=O)O)C(=O)N[C@@H](CCCNC(=N)N)C(=O)N[C@@H](C)C(=O)NCC(=O)NCC(=O)NCC(=O)NCC(=O)N[C@@H](CCCNC(=N)N)C(=O)NCC(=O)N[C@@H](CC(=O)O)C(=O)O [X25] (X75-RGADRAGGGGRGD-OH) | 0.5838 ± 0.0861 | 13.56 | 0.5673 ± 0.0906 | 16.01 | 0.4576 ± 0.1221 | 32.25 | 5.72 ± 1.11 | 0.71 ± 0.16 | 3.76 ± 0.09 | 52.90 | 31.67 ± 6.856 | 5.62 ± 0.64 | 9.79 | 28.57 | 3.3 ± 0.06** mg | 47.03 | 24600 ± 7530 | 44.1 ± 10.7 | 0.677 | 30.6 ± 0.32 | Swelling degree (mg) ([2]; dose 4 mg/kg): 4.45 ± 0.20* mg; Swelling degree 1 h ([4]; 2.0 mg/kg once a day for 3 d): 0.29 ± 0.17 mg; Swelling degree 3 h ([4]; 2.0 mg/kg once a day for 3 d): 0.38 ± 0.12 mg; Swelling degree 5 h ([4]; 2.0 mg/kg once a day for 3 d): 0.46 ± 0.18 mg; Swelling degree 7 h ([4]; 2.0 mg/kg once a day for 3 d): 0.34 ± 0.13 mg; Swelling degree 1 h ([4]; 4.0 mg/kg once a day for 3 d): 0.27 ± 0.15 mg; Swelling degree 3 h ([4]; 4.0 mg/kg once a day for 3 d): 0.36 ± 0.19 mg; Swelling degree 5 h ([4]; 4.0 mg/kg once a day for 3 d): 0.44 ± 0.18 mg; Swelling degree 7 h ([4]; 4.0 mg/kg once a day for 3 d): 0.33 ± 0.12 mg
C[C@H](NC(=O)CNC(=O)[C@H](CCCNC(=N)N)NC(=O)CCc1cccc(N2C(=O)C=CC2=O)c1)C(=O)N[C@@H](CC(=O)O)C(=O)N[C@@H](CCCNC(=N)N)C(=O)N[C@@H](C)C(=O)NCC(=O)NCC(=O)NCC(=O)NCC(=O)N[C@@H](CCCNC(=N)N)C(=O)NCC(=O)N[C@@H](CC(=O)O)C(=O)O [X26] (X79-RGADRAGGGGRGD-OH) | 0.5714 ± 0.1002 | 15.46 | 0.5365 ± 0.0543 | 20.57 | 0.4991 ± 0.0743 | 26.10 | 5.65 ± 1.07 | 0.74 ± 0.18 | 3.81 ± 0.59 | 44.32 | 37.44 ± 4.646 | 5.88 ± 0.72 | 5.62 | 7.22 | 4.54 ± 0.61** mg | 49.76 | 34600 ± 8340 | 62 ± 9.63 | 0.482 | 42.95 ± 0.36 | Swelling degree ([2]; dose 4 mg/kg): 5.78 ± 0.62 mg; Swelling degree 1 h ([4]; 2.0 mg/kg once a day for 3 d): 0.28 ± 0.17 mg; Swelling degree 3 h ([4]; 2.0 mg/kg once a day for 3 d): 0.31 ± 0.18 mg; Swelling degree 5 h ([4]; 2.0 mg/kg once a day for 3 d): 0.42 ± 0.11 mg; Swelling degree 7 h ([4]; 2.0 mg/kg once a day for 3 d): 0.39 ± 0.12 mg; Swelling degree 1 h ([4]; 4.0 mg/kg once a day for 3 d): 0.25 ± 0.18 mg; Swelling degree 3 h ([4]; 4.0 mg/kg once a day for 3 d): 0.31 ± 0.13 mg; Swelling degree 5 h ([4]; 4.0 mg/kg once a day for 3 d): 0.40 ± 0.15 mg; Swelling degree 7 h ([4]; 4.0 mg/kg once a day for 3 d): 0.30 ± 0.16 mg
C[C@H](NC(=O)CNC(=O)[C@H](CCCNC(=N)N)NC(=O)CCCc1cccc(N2C(=O)C=CC2=O)c1)C(=O)N[C@@H](CC(=O)O)C(=O)N[C@@H](CCCNC(=N)N)C(=O)N[C@@H](C)C(=O)NCC(=O)NCC(=O)NCC(=O)NCC(=O)N[C@@H](CCCNC(=N)N)C(=O)NCC(=O)N[C@@H](CC(=O)O)C(=O)O [X27] (X61-RGADRAGGGGRGD-OH) | 0.5388 ± 0.0643 | 20.23 | 0.5231 ± 0.0967 | 22.55 | 0.4792 ± 0.0849 | 29.08 | 5.63 ± 1.12 | 0.74 ± 0.17 | 3.86 ± 0.85 | 43.93 | 37.70 ± 3.805 | 5.36 ± 0.32 | 13.96 | 23.60 | 3.13 ± 0.38* mg | 27.13 | 26200 ± 7250 | 46.9 ± 9.74 | 0.635 | 32.52 ± 0.25 | Swelling degree (mg) ([2]; dose 4 mg/kg): 4.76 ± 0.89* mg; Swelling degree 1 h ([4]; 2.0 mg/kg once a day for 3 d): 0.27 ± 0.13 mg; Swelling degree 3 h ([4]; 2.0 mg/kg once a day for 3 d): 0.33 ± 0.14 mg; Swelling degree 5 h ([4]; 2.0 mg/kg once a day for 3 d): 0.39 ± 0.17 mg; Swelling degree 7 h ([4]; 2.0 mg/kg once a day for 3 d): 0.36 ± 0.16 mg; Swelling degree 1 h ([4]; 4.0 mg/kg once a day for 3 d): 0.24 ± 0.12 mg; Swelling degree 3 h ([4]; 4.0 mg/kg once a day for 3 d): 0.33 ± 0.16 mg; Swelling degree 5 h ([4]; 4.0 mg/kg once a day for 3 d): 0.32 ± 0.17 mg; Swelling degree 7 h ([4]; 4.0 mg/kg once a day for 3 d): 0.34 ± 0.14 mg
C[C@H](NC(=O)CNC(=O)[C@H](CCCNC(=N)N)NC(=O)CCCCCc1cccc(N2C(=O)C=CC2=O)c1)C(=O)N[C@@H](CC(=O)O)C(=O)N[C@@H](CCCNC(=N)N)C(=O)N[C@@H](C)C(=O)NCC(=O)NCC(=O)NCC(=O)NCC(=O)N[C@@H](CCCNC(=N)N)C(=O)NCC(=O)N[C@@H](CC(=O)O)C(=O)O [X29] (X71-RGADRAGGGGRGD-OH) | 0.5595 ± 0.0932 | 17.16 | 0.5284 ± 0.0661 | 21.76 | 0.5094 ± 0.1191 | 24.58 | 5.72 ± 1.06 | 0.84 ± 0.16 | 3.72 ± 0.80 | 54.98 | 30.27 ± 4.918 | 5.43 ± 0.91 | 12.84 | 20.39 | 3.86 ± 0.45** mg | 38.04 | 32200 ± 8030 | 57.6 ± 10.6 | 0.518 | 39.91 ± 0.25 | Swelling degree (mg) ([2]; dose 4 mg/kg): 4.96 ± 0.1* mg; Swelling degree 1 h ([4]; 2.0 mg/kg once a day for 3 d): 0.27 ± 0.16 mg; Swelling degree 3 h ([4]; 2.0 mg/kg once a day for 3 d): 0.35 ± 0.18 mg; Swelling degree 5 h ([4]; 2.0 mg/kg once a day for 3 d): 0.36 ± 0.19 mg; Swelling degree 7 h ([4]; 2.0 mg/kg once a day for 3 d): 0.33 ± 0.17 mg; Swelling degree 1 h ([4]; 4.0 mg/kg once a day for 3 d): 0.22 ± 0.12 mg; Swelling degree 3 h ([4]; 4.0 mg/kg once a day for 3 d): 0.34 ± 0.15 mg; Swelling degree 5 h ([4]; 4.0 mg/kg once a day for 3 d): 0.35 ± 0.13 mg; Swelling degree 7 h ([4]; 4.0 mg/kg once a day for 3 d): 0.32 ± 0.17 mg
